Experimental data reported in publication PMC10108266, “Pharmacokinetic characteristics of golidocitinib, a highly selective JAK1 inhibitor, in healthy adult participants” (Frontiers in Immunology, 2023).

Assay: Safety (TEAEs), JACKPOT3
Type: in vivo, human
Conditions: n = 6
Excerpt: The safety monitoring for both JACKPOT2 and JACKPOT3 was similar, included monitoring of adverse events/serious adverse events, clinical safety laboratory tests (clinical chemistry, hematology, coagulation, and urinalysis tests), 12-lead ECG, vital signs (blood pressure, pulse rate, and respiratory rate), and pulmonary function.

Structure (SMILES): COc1nn(C)cc1Nc1nccc(-c2c[nH]c3c(NC(=O)[C@@H](C)N4CCN(C)CC4)cccc23)n1 [golidocitinib, (2R)-N-[3-[2-[(3-Methoxy-1-methyl-pyrazol-4-yl)amino]pyrimidin-4-yl]-1H-indol-7-yl]-2-(4-methylpiperazin-1-yl)propenamide]
- ALT Increased (25 mg): 0 n (%)
- AST Increased (25 mg): 0 n (%)
- Abdominal discomfort (25 mg): 1 (16.7%) n (%)
- Blood and Lymphatic System Disorders (25 mg): 1 (16.7%) n (%)
- Blood bilirubin increased (25 mg): 0 n (%)
- Blood cholesterol increased (25 mg): 0 n (%)
- C-reactive protein increased (25 mg): 1 (16.7%) n (%)
- Diarrhea (25 mg): 1 (16.7%) n (%)
- ECG QT prolonged (25 mg): 0 n (%)
- Epistaxis (25 mg): 0 n (%)
- Gastrointestinal disorders (25 mg): 2 (33.3%) n (%)
- Glucose urine present (25 mg): 0 n (%)
- Hemoglobin decreased (25 mg): 0 n (%)
- Hypertriglyceridemia (25 mg): 0 n (%)
- Injury, poisoning and procedural complications (25 mg): 1 (16.7%) n (%)
- Investigations (25 mg): 2 (33.3%) n (%)
- LDH increased (25 mg): 0 n (%)
- LDL increased (25 mg): 0 n (%)
- Leukocytosis (25 mg): 1 (16.7%) n (%)
- Limb injury (25 mg): 1 (16.7%) n (%)
- Metabolism and nutrition disorders (25 mg): 0 n (%)
- Musculoskeletal and connective tissue disorders (25 mg): 0 n (%)
- Musculoskeletal pain (25 mg): 0 n (%)
- Musculoskeletal stiffness (25 mg): 0 n (%)
- Neutrophil count decreased (25 mg): 1 (16.7%) n (%)
- Productive cough (25 mg): 1 (16.7%) n (%)
- Respiratory, Thoracic and Mediastinal Disorders (25 mg): 1 (16.7%) n (%)
- Rhinorrhea (25 mg): 0 n (%)
- Subjects with at least one TEAE (25 mg): 4 (66.7%) n (%)
- Wound (25 mg): 0 n (%)
- ALT Increased (50 mg): 1 (16.7%) n (%)
- AST Increased (50 mg): 2 (33.3%) n (%)
- Abdominal discomfort (50 mg): 0 n (%)
- Blood and Lymphatic System Disorders (50 mg): 0 n (%)
- Blood bilirubin increased (50 mg): 1 (16.7%) n (%)
- Blood cholesterol increased (50 mg): 0 n (%)
- C-reactive protein increased (50 mg): 0 n (%)
- Diarrhea (50 mg): 0 n (%)
- ECG QT prolonged (50 mg): 0 n (%)
- Epistaxis (50 mg): 0 n (%)
- Gastrointestinal disorders (50 mg): 0 n (%)
- Glucose urine present (50 mg): 0 n (%)
- Hemoglobin decreased (50 mg): 0 n (%)
- Hypertriglyceridemia (50 mg): 1 (16.7%) n (%)
- Injury, poisoning and procedural complications (50 mg): 0 n (%)
- Investigations (50 mg): 3 (50.0%) n (%)
- LDH increased (50 mg): 1 (16.7%) n (%)
- LDL increased (50 mg): 1 (16.7%) n (%)
- Leukocytosis (50 mg): 0 n (%)
- Limb injury (50 mg): 0 n (%)
- Metabolism and nutrition disorders (50 mg): 1 (16.7%) n (%)
- Musculoskeletal and connective tissue disorders (50 mg): 0 n (%)
- Musculoskeletal pain (50 mg): 0 n (%)
- Musculoskeletal stiffness (50 mg): 0 n (%)
- Neutrophil count decreased (50 mg): 0 n (%)
- Productive cough (50 mg): 0 n (%)
- Respiratory, Thoracic and Mediastinal Disorders (50 mg): 0 n (%)
- Rhinorrhea (50 mg): 0 n (%)
- Subjects with at least one TEAE (50 mg): 3 (50.0%) n (%)
- Wound (50 mg): 0 n (%)
- ALT Increased (100 mg): 1 (16.7%) n (%)
- AST Increased (100 mg): 0 n (%)
- Abdominal discomfort (100 mg): 0 n (%)
- Blood and Lymphatic System Disorders (100 mg): 0 n (%)
- Blood bilirubin increased (100 mg): 0 n (%)
- Blood cholesterol increased (100 mg): 0 n (%)
- C-reactive protein increased (100 mg): 1 (16.7%) n (%)
- Diarrhea (100 mg): 0 n (%)
- ECG QT prolonged (100 mg): 0 n (%)
- Epistaxis (100 mg): 1 (16.7%) n (%)
- Gastrointestinal disorders (100 mg): 0 n (%)
- Glucose urine present (100 mg): 0 n (%)
- Hemoglobin decreased (100 mg): 0 n (%)
- Hypertriglyceridemia (100 mg): 2 (33.3%) n (%)
- Injury, poisoning and procedural complications (100 mg): 0 n (%)
- Investigations (100 mg): 2 (33.3%) n (%)
- LDH increased (100 mg): 0 n (%)
- LDL increased (100 mg): 0 n (%)
- Leukocytosis (100 mg): 0 n (%)
- Limb injury (100 mg): 0 n (%)
- Metabolism and nutrition disorders (100 mg): 2 (33.3%) n (%)
- Musculoskeletal and connective tissue disorders (100 mg): 1 (16.7%) n (%)
- Musculoskeletal pain (100 mg): 0 n (%)
- Musculoskeletal stiffness (100 mg): 1 (16.7%) n (%)
- Neutrophil count decreased (100 mg): 0 n (%)
- Productive cough (100 mg): 0 n (%)
- Respiratory, Thoracic and Mediastinal Disorders (100 mg): 1 (16.7%) n (%)
- Rhinorrhea (100 mg): 0 n (%)
- Subjects with at least one TEAE (100 mg): 4 (66.7%) n (%)
- Wound (100 mg): 0 n (%)
- ALT Increased (150 mg): 0 n (%)
- AST Increased (150 mg): 0 n (%)
- Abdominal discomfort (150 mg): 0 n (%)
- Blood and Lymphatic System Disorders (150 mg): 0 n (%)
- Blood bilirubin increased (150 mg): 2 (33.3%) n (%)
- Blood cholesterol increased (150 mg): 1 (16.7%) n (%)
- C-reactive protein increased (150 mg): 1 (16.7%) n (%)
- Diarrhea (150 mg): 1 (16.7%) n (%)
- ECG QT prolonged (150 mg): 1 (16.7%) n (%)
- Epistaxis (150 mg): 0 n (%)
- Gastrointestinal disorders (150 mg): 1 (16.7%) n (%)
- Glucose urine present (150 mg): 1 (16.7%) n (%)
- Hemoglobin decreased (150 mg): 1 (16.7%) n (%)
- Hypertriglyceridemia (150 mg): 2 (33.3%) n (%)
- Injury, poisoning and procedural complications (150 mg): 1 (16.7%) n (%)
- Investigations (150 mg): 4 (66.7%) n (%)
- LDH increased (150 mg): 0 n (%)
- LDL increased (150 mg): 1 (16.7%) n (%)
- Leukocytosis (150 mg): 0 n (%)
- Limb injury (150 mg): 0 n (%)
- Metabolism and nutrition disorders (150 mg): 2 (33.3%) n (%)
- Musculoskeletal and connective tissue disorders (150 mg): 1 (16.7%) n (%)
- Musculoskeletal pain (150 mg): 1 (16.7%) n (%)
- Musculoskeletal stiffness (150 mg): 0 n (%)
- Neutrophil count decreased (150 mg): 2 (33.3%) n (%)
- Productive cough (150 mg): 0 n (%)
- Respiratory, Thoracic and Mediastinal Disorders (150 mg): 1 (16.7%) n (%)
- Rhinorrhea (150 mg): 1 (16.7%) n (%)
- Subjects with at least one TEAE (150 mg): 6 (100%) n (%)
- Wound (150 mg): 1 (16.7%) n (%)
